Measured values as given in PubChem BioAssay AID308 (DTP/NCI, 2004).
“And” between values parts separate entries of the source, which are not always exact repeats. Equal values may be shown once. Inconclusive results and toxic doses are left out.

Tested on: BDF1 mice, L1210 6-MP/6-TG resistant leukemia ip, survival T/C
Assay: NCI In Vivo Anticancer Drug Screen. Data for tumor model L1210 Leukemia resistant to 6-MP and 6-Thioguanine; NSC 755, NSC 752 (intraperitoneal) in B6D2F1 (BDF1) mice
Conditions: endpoint: mean survival time, higher = longer survival
Description: The antitumor activity of compounds was measured in mice bearing transplantable tumors. Survival or tumor size were measured and the results are expressed as the measurement made in the treated group (T) divided by the measurement made in the vehicle treated control group (C). The tumor model used in this assay is L1210 Leukemia resistant to 6-MP and 6-Thioguanine; NSC 755, NSC 752 (intraperitoneal) in B6D2F1 (BDF1) mice

[1] = dose: 25.0 mg/kg/injection, schedule: Q01DX Z (ip), vehicle: carboxymethylcellulose (CMC)
[2] = dose: 100.0 mg/kg/injection, schedule: Q01DX Z (ip), vehicle: carboxymethylcellulose (CMC)
[3] = dose: 7.5 mg/kg/injection, schedule: Q01DX Z (ip), vehicle: carboxymethylcellulose (CMC)
[4] = dose: 15.0 mg/kg/injection, schedule: Q01DX Z (ip), vehicle: carboxymethylcellulose (CMC)

## [N-]=[N+]=CC(=O)NCC(=O)NN
dose: 62.0 mg/kg/injection, schedule: Q01DX Z (ip), vehicle: saline
  T/C: 114 % of control

## S=c1nc[nH]c2c1ncn2CN1CCCCC1
dose: 50.0 mg/kg/injection, schedule: Q01DX009 (ip), vehicle: other
  T/C: 94 % of control

## COCCCNS(=O)(=O)c1ncnc2nc[nH]c12
[1]
  T/C: 92 % of control
[2]
  T/C: 90 % of control

## O=P(O)(OCC1OC(n2cnc3c(=S)nc[nH]c32)C(O)C1O)Oc1ccccc1 (centres undefined)
dose: 200.0 mg/kg/injection, schedule: Q01DX001 (ip), vehicle: carboxymethylcellulose (CMC)
  T/C: 103 % of control
dose: 300.0 mg/kg/injection, schedule: Q01DX001 (ip), vehicle: carboxymethylcellulose (CMC)
  T/C: 99 % of control
dose: 400.0 mg/kg/injection, schedule: Q01DX001 (ip), vehicle: carboxymethylcellulose (CMC)
  T/C: 100 % of control
dose: 500.0 mg/kg/injection, schedule: Q01DX001 (ip), vehicle: carboxymethylcellulose (CMC)
  T/C: 103 % of control
dose: 750.0 mg/kg/injection, schedule: Q01DX001 (ip), vehicle: carboxymethylcellulose (CMC)
  T/C: 94 % of control
dose: 1000.0 mg/kg/injection, schedule: Q01DX001 (ip), vehicle: carboxymethylcellulose (CMC)
  T/C: 86 % of control

## O=c1[nH]cnc2c1nnn2C1OC(CO)C(O)C1O (centres undefined)
dose: 50.0 mg/kg/injection, schedule: Q01DX009 (ip), vehicle: saline
  T/C: 111 % of control
dose: 76.0 mg/kg/injection, schedule: Q01DX009 (ip), vehicle: saline
  T/C: 118 % of control
dose: 114.0 mg/kg/injection, schedule: Q01DX009 (ip), vehicle: saline
  T/C: 156 % of control and 171 % of control
dose: 256.0 mg/kg/injection, schedule: Q01DX009 (ip), vehicle: saline
  T/C: 112 % of control

## CCOC(=O)Sc1ncnc2nc[nH]c12
dose: 14.0 mg/kg/injection, schedule: Q01DX Z (ip), vehicle: saline
  T/C: 95 % of control
dose: 28.0 mg/kg/injection, schedule: Q01DX Z (ip), vehicle: saline
  T/C: 95 % of control
dose: 56.0 mg/kg/injection, schedule: Q01DX Z (ip), vehicle: saline
  T/C: 90 % of control

## O=P1(N(CCCl)CCCl)NCCCO1 (centres undefined)
dose: 37.5 mg/kg/injection, schedule: Q01DX Z (ip), vehicle: saline
  T/C: 153 % of control
dose: 75.0 mg/kg/injection, schedule: Q01DX Z (ip), vehicle: saline
  T/C: 94 % of control
dose: 100.0 mg/kg/injection, schedule: Q01DX Z (ip), vehicle: saline
  T/C: 101 % of control

## O=C(Nc1ccc(C2=NCCN2)cc1)c1ccc(C(=O)Nc2ccc(C3=NCCN3)cc2)cc1
dose: 18.75 mg/kg/injection, schedule: Q01DX Z (ip), vehicle: carboxymethylcellulose (CMC)
  T/C: 154 % of control
[1]
  T/C: 151 % of control
dose: 27.0 mg/kg/injection, schedule: Q02DX010 (ip), vehicle: carboxymethylcellulose (CMC)
  T/C: 312 % of control
dose: 40.0 mg/kg/injection, schedule: Q02DX010 (ip), vehicle: carboxymethylcellulose (CMC)
  T/C: 317 % of control
dose: 50.0 mg/kg/injection, schedule: Q01DX Z (ip), vehicle: carboxymethylcellulose (CMC)
  T/C: 219 % of control
dose: 60.0 mg/kg/injection, schedule: Q02DX010 (ip), vehicle: carboxymethylcellulose (CMC)
  T/C: 296 % of control
dose: 75.0 mg/kg/injection, schedule: Q01DX Z (ip), vehicle: carboxymethylcellulose (CMC)
  T/C: 188 % of control and 232 % of control
dose: 90.0 mg/kg/injection, schedule: Q02DX010 (ip), vehicle: carboxymethylcellulose (CMC)
  T/C: 280 % of control
[2]
  T/C: 288 % of control and 295 % of control
dose: 135.0 mg/kg/injection, schedule: Q02DX010 (ip), vehicle: carboxymethylcellulose (CMC)
  T/C: 312 % of control
dose: 150.0 mg/kg/injection, schedule: Q01DX Z (ip), vehicle: carboxymethylcellulose (CMC)
  T/C: 300 % of control
dose: 200.0 mg/kg/injection, schedule: Q01DX Z (ip), vehicle: carboxymethylcellulose (CMC)
  T/C: 186 % of control

## C[C@]12C=CC(=O)C=C1CC[C@@H]1[C@@H]2C(=O)C[C@@]2(C)[C@H]1CC[C@]2(O)C(=O)CO
dose: 50.0 mg/kg/injection, schedule: Q01DX Z (sc), vehicle: steriod suspending solution
  T/C: 105 % of control
dose: 100.0 mg/kg/injection, schedule: Q01DX Z (sc), vehicle: steriod suspending solution
  T/C: 100 % of control
dose: 150.0 mg/kg/injection, schedule: Q01DX Z (sc), vehicle: steriod suspending solution
  T/C: 93 % of control
dose: 200.0 mg/kg/injection, schedule: Q01DX Z (sc), vehicle: steriod suspending solution
  T/C: 96 % of control

## CN(Cc1cnc2nc(N)nc(N)c2n1)c1c(Cl)cc(C(=O)NC(CCC(=O)O)C(=O)O)cc1Cl (centres undefined)
dose: 0.31 mg/kg/injection, schedule: Q01DX015 (ip), vehicle: carboxymethylcellulose (CMC)
  T/C: 154 % of control
dose: 0.62 mg/kg/injection, schedule: Q01DX015 (ip), vehicle: carboxymethylcellulose (CMC)
  T/C: 238 % of control
dose: 1.25 mg/kg/injection, schedule: Q01DX015 (ip), vehicle: carboxymethylcellulose (CMC)
  T/C: 307 % of control
dose: 2.5 mg/kg/injection, schedule: Q01DX015 (ip), vehicle: carboxymethylcellulose (CMC)
  T/C: 175 % of control and 320 % of control
dose: 5.0 mg/kg/injection, schedule: Q01DX015 (ip), vehicle: carboxymethylcellulose (CMC)
  T/C: 219 % of control and 330 % of control
dose: 9.0 mg/kg/injection, schedule: Q02DX010 (ip), vehicle: carboxymethylcellulose (CMC)
  T/C: 348 % of control
dose: 10.0 mg/kg/injection, schedule: Q01DX015 (ip), vehicle: carboxymethylcellulose (CMC)
  T/C: 162 % of control
dose: 13.0 mg/kg/injection, schedule: Q01DX015 (ip), vehicle: carboxymethylcellulose (CMC)
  T/C: 293 % of control
dose: 13.0 mg/kg/injection, schedule: Q02DX010 (ip), vehicle: carboxymethylcellulose (CMC)
  T/C: 348 % of control
dose: 20.0 mg/kg/injection, schedule: Q01DX015 (ip), vehicle: carboxymethylcellulose (CMC)
  T/C: 262 % of control
dose: 20.0 mg/kg/injection, schedule: Q02DX010 (ip), vehicle: carboxymethylcellulose (CMC)
  T/C: 308 % of control
dose: 30.0 mg/kg/injection, schedule: Q01DX015 (ip), vehicle: carboxymethylcellulose (CMC)
  T/C: 168 % of control and 181 % of control
dose: 30.0 mg/kg/injection, schedule: Q02DX010 (ip), vehicle: carboxymethylcellulose (CMC)
  T/C: 310 % of control
dose: 45.0 mg/kg/injection, schedule: Q01DX015 (ip), vehicle: carboxymethylcellulose (CMC)
  T/C: 269 % of control
dose: 45.0 mg/kg/injection, schedule: Q02DX010 (ip), vehicle: carboxymethylcellulose (CMC)
  T/C: 343 % of control
dose: 67.0 mg/kg/injection, schedule: Q02DX010 (ip), vehicle: carboxymethylcellulose (CMC)
  T/C: 348 % of control
dose: 67.5 mg/kg/injection, schedule: Q01DX015 (ip), vehicle: carboxymethylcellulose (CMC)
  T/C: 205 % of control
dose: 80.0 mg/kg/injection, schedule: Q01DX015 (ip), vehicle: carboxymethylcellulose (CMC)
  T/C: 116 % of control
dose: 80.0 mg/kg/injection, schedule: Q01DX015 (ip), vehicle: saline
  T/C: 194 % of control
dose: 100.0 mg/kg/injection, schedule: Q01DX015 (ip), vehicle: carboxymethylcellulose (CMC)
  T/C: 121 % of control
dose: 100.0 mg/kg/injection, schedule: Q01DX015 (ip), vehicle: saline
  T/C: 233 % of control
dose: 120.0 mg/kg/injection, schedule: Q01DX015 (ip), vehicle: carboxymethylcellulose (CMC)
  T/C: 104 % of control
dose: 120.0 mg/kg/injection, schedule: Q01DX015 (ip), vehicle: saline
  T/C: 112 % of control
dose: 75.0 micrograms/kg/injection, schedule: Q01DX015 (ip), vehicle: carboxymethylcellulose (CMC)
  T/C: 307 % of control
dose: 150.0 micrograms/kg/injection, schedule: Q01DX015 (ip), vehicle: carboxymethylcellulose (CMC)
  T/C: 300 % of control
dose: 310.0 micrograms/kg/injection, schedule: Q01DX015 (ip), vehicle: carboxymethylcellulose (CMC)
  T/C: 293 % of control
dose: 620.0 micrograms/kg/injection, schedule: Q01DX015 (ip), vehicle: carboxymethylcellulose (CMC)
  T/C: 313 % of control

## Nc1ncnc2[nH]ncc12
[3]
  T/C: 105 % of control
dose: 10.0 mg/kg/injection, schedule: Q01DX Z (ip), vehicle: carboxymethylcellulose (CMC)
  T/C: 92 % of control
[4]
  T/C: 94 % of control
[1]
  T/C: 97 % of control

## S=P(N1CCOCC1)(N1CC1)N1CC1
dose: 1.87 mg/kg/injection, schedule: Q01DX Z (ip), vehicle: carboxymethylcellulose (CMC)
  T/C: 90 % of control
dose: 2.5 mg/kg/injection, schedule: Q01DX Z (ip), vehicle: carboxymethylcellulose (CMC)
  T/C: 93 % of control
dose: 3.75 mg/kg/injection, schedule: Q01DX Z (ip), vehicle: carboxymethylcellulose (CMC)
  T/C: 151 % of control
dose: 5.0 mg/kg/injection, schedule: Q01DX Z (ip), vehicle: carboxymethylcellulose (CMC)
  T/C: 117 % of control
[3]
  T/C: 116 % of control
dose: 12.5 mg/kg/injection, schedule: Q01DX Z (ip), vehicle: carboxymethylcellulose (CMC)
  T/C: 109 % of control
[4]
  T/C: 118 % of control
